Measured values taken from US12306178B2 (priority 2022, dated 2025).

Key:
[1] = tested on: DON-ScFV-AP bifunctional fusion protein; format: binding
[2] = tested on: AFB1-ScFV-AP bifunctional fusion protein; format: binding

## CC(=O)O[C@@H]1C[C@]2(C)[C@@]3(CO)[C@H](O)C(=O)C(C)=C[C@H]3O[C@H]1[C@@]21CO1 [3-ADON, 3-acetyldeoxynivalenol]
[1]
  IC50: 2.3 ppb
  cross-reaction (in words): obvious cross-reaction
[2]
  IC50: >100.1 ppm

## CC(=O)OC[C@]12[C@H](O)C(=O)C(C)=C[C@H]1O[C@@H]1[C@H](O)C[C@@]2(C)[C@]12CO2 [15-ADON, 15-acetyldeoxynivalenol]
[1]
  IC50: 64 ppb
[2]
  IC50: >100.4 ppm

## CC1=C[C@H]2O[C@@H]3[C@H](O)C[C@](C)([C@@]2(CO)[C@H](O)C1=O)[C@]31CO1 [DON, Deoxynivalenol]
[1]
  IC50: 2.4 ppb
[2]
  IC50: >10 ppm

## CC1=C[C@H]2O[C@@H]3[C@H](O[C@@H]4O[C@H](CO)[C@@H](O)[C@H](O)[C@H]4O)C[C@](C)([C@@]2(CO)[C@H](O)C1=O)[C@]31CO1 [DON-3G, deoxynivalenol-3-glucoside]
[2]
  IC50: >50 ppm

## CCCC[C@@H](C)[C@@H](OC(=O)C[C@@H](CC(=O)O)C(=O)O)[C@H](C[C@@H](C)C[C@H](O)CCCC[C@@H](O)C[C@H](O)[C@H](C)N)OC(=O)C[C@@H](CC(=O)O)C(=O)O [FB1, fumonisin B1]
[2]
  IC50: >28.6 ppm

## CCCC[C@@H](C)[C@@H](OC(=O)C[C@@H](CC(=O)O)C(=O)O)[C@H](C[C@@H](C)CCCCCC[C@@H](O)C[C@H](O)[C@H](C)N)OC(=O)C[C@@H](CC(=O)O)C(=O)O [FB2, fumonisin B2]
[2]
  IC50: >28.6 ppm

## CCCC[C@@H](C)[C@@H](OC(=O)C[C@@H](CC(=O)O)C(=O)O)[C@H](C[C@@H](C)C[C@H](O)CCCCCC[C@H](O)[C@H](C)N)OC(=O)C[C@@H](CC(=O)O)C(=O)O [FB3, fumonisin B3]
[2]
  IC50: >28.6 ppm

## CC1=C[C@H]2O[C@@H]3[C@H](O)[C@@H](O)[C@](C)([C@@]2(CO)[C@H](O)C1=O)[C@]31CO1 [NIV, nivalenol]
[1]
  IC50: 610 ppb
[2]
  IC50: >100.4 ppm

## C[C@@H]1Cc2c(Cl)cc(C(=O)N[C@@H](Cc3ccccc3)C(=O)O)c(O)c2C(=O)O1 [OTA, ochratoxin A]
[1]
  IC50: >1.9 ppm
[2]
  IC50: >1.9 ppm

## C[C@H]1CCCC(=O)CCC/C=C/c2cc(O)cc(O)c2C(=O)O1 [ZEN, zearalenone]
[1]
  IC50: >20 ppm
[2]
  IC50: >20 ppm

## T-2 toxin
[1]
  IC50: >100 ppm
[2]
  IC50: >100 ppm

## aflatoxin B1 [AFB1]
[1]
  IC50: >2 ppm
[2]
  IC50: 0.5 ppb

## aflatoxin B2 [AFB2]
[2]
  IC50: 1.9 ppb

## aflatoxin G1 [AFG1]
[2]
  IC50: 2.1 ppb

## aflatoxin G2 [AFG2]
[2]
  IC50: 8.1 ppb
